# Measurements taken from ChEMBL document CHEMBL4257528, “Molecular insights into the interaction of Hsp90 with allosteric inhibitors targeting the C-terminal domain” (Medchemcomm, 2018).
# Activity calls are given as the source filed them. The rule behind the calls is not given here.
# Tests used:
# [1] = molecular target: Heat shock protein HSP 90-alpha (Homo sapiens) (UniProt P07900); test: Binding affinity to 1H/13C-Ile HSP90alpha CTD (unknown origin) at 1.4 mM by Methyl-TROSY […] spectrum analysis
# [2] = Solubility of the compound in buffer solution; assay type: physicochemical
# [3] = molecular target: Heat shock protein HSP 90-alpha (Homo sapiens) (UniProt P07900); test: Binding affinity to N-terminal His6-tagged HSP90alpha CTD (unknown origin) expressed in Escherichia coli BL21(DE3) at compound to protein ratio of 164 by STD-NMR method
# [4] = molecular target: Heat shock protein HSP 90-alpha (Homo sapiens) (UniProt P07900); test: Binding affinity to 1H/13C-Ile HSP90alpha CTD (unknown origin) at 0.9 mM by Methyl-TROSY […] spectrum analysis
# [5] = molecular target: Heat shock protein HSP 90-alpha (Homo sapiens) (UniProt P07900); test: Binding affinity to 1H/13C-Ile HSP90alpha CTD (unknown origin) at 2.5 mM by Methyl-TROSY […] spectrum analysis
Compound,Activity [1],solubility [2],Activity [3],Activity [4],Activity [5]
CO[C@@H]1[C@@H](O)[C@@H](O)[C@H](Oc2ccc(CCNC(C)=O)c(-c3cccc(F)c3)c2)OC1(C)C [CEMDOMESPIB],Active,Soluble,Active,–,–
CO[C@@H]1[C@@H](O)[C@@H](O)[C@H](Oc2ccc3cc(NC(C)=O)c(=O)oc3c2C)OC1(C)C,–,Soluble,Active,Active,–
Nc1ncnc2c1ncn2[C@@H]1O[C@H](COP(=O)(O)OP(=O)(O)NP(=O)(O)O)[C@@H](O)[C@H]1O,–,–,–,–,Active
